Tests used:
Trypanosoma cruzi [1] = assay: Antitrypanosomal activity against Trypanosoma cruzi Tulahuen 2 at 25 uM after 5 days; assay type: functional; details: Tulahuen 2, 120 h, read-out: GI
Trypanosoma cruzi [2] = assay: Antitrypanosomal activity against Trypanosoma cruzi Tulahuen 2 after 5 days; assay type: functional; details: Tulahuen 2, 120 h, read-out: ID50 (the source's name)
[3] = Therapeutic index, ID50 for human THP1 cells to ID50 for Trypanosoma cruzi; assay type: cell-based; details: THP-1 cells versus Trypanosoma cruzi, read-out: TI
[4] = Cytotoxicity against human THP1 cells after 48 hrs; assay type: cell-based; details: THP-1 cells, read-out: ID50

Row | SMILES | inhibition of growth at 25 µM (Trypanosoma cruzi [1]) | IC50 (Trypanosoma cruzi [2]) | selectivity ratio [3] | CC50 at 48 h [4]
1 | C/C(=N\NC(=S)N1CCCCC1)c1ccc([N+](=O)[O-])cc1 | 12% | > 25 µM | – | –
2 | CNC(=S)N/N=C(\C)c1ccc([N+](=O)[O-])cc1 | 31% | > 25 µM | > 16 | > 400 µM
3 | C/C(=N\NC(=S)N(C)C)c1ccc([N+](=O)[O-])cc1 | 100% | 0.28 µM | > 1430 | > 400 µM
4 | O=C(Cn1ccnc1[N+](=O)[O-])NCc1ccccc1 [BENZNIDAZOLE] | 100% | 7.4 µM | > 40 | > 300 µM
5 | CC1CS(=O)(=O)CCN1/N=C/c1ccc([N+](=O)[O-])o1 (stereo not drawn) [NIFURTIMOX] | 100% | 7.7 µM | > 38 | > 300 µM

Reference: ChEMBL document CHEMBL1156673, “4-nitroacetophenone-derived thiosemicarbazones and their copper(II) complexes with significant in vitro anti-trypanosomal activity” (Eur J Med Chem, 2008)
